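Test compounds were applied to cells in 96-well plates for 48 hours at 5 doses. Here, GI50 denotes the concentration required for 50% inhibition of growth.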 Active and inactive are the calls of the source. Cut-off read from the data, not from the text of the source: active = GI50 up to about 1.1 µM and inactive = higher.
Legend:
Assay in all cases: NCI-60 cell line screen, 48 h
ACHN = test system: ACHN
CAKI-1 = test system: CAKI-1
CCRF-CEM = test system: CCRF-CEM
COLO 205 = test system: COLO 205
EKVX = test system: EKVX
HCT-116 = test system: HCT-116
HOP-92 = test system: HOP-92
HT-29 = test system: HT-29
K562 = test system: K562
MDA-MB-435 = test system: MDA-MB-435
NCI-H226 = test system: NCI-H226
OVCAR-8 = test system: OVCAR-8
RPMI-8226 = test system: RPMI-8226
RXF 393 = test system: RXF 393
SF-268 = test system: SF-268
SF-539 = test system: SF-539
SK-OV-3 = test system: SK-OV-3
TK-10 = test system: TK-10
PC-3 = test system: PC-3
SK-MEL-2 = test system: SK-MEL-2

Measured: GI50

Clc1ccccc1/C=C\C1(c2ccccc2)OCCO1
inactive: ACHN 17.3 µM | CAKI-1 17.3 µM | CCRF-CEM 19.7 µM | COLO 205 21.3 µM | EKVX 19.1 µM | HCT-116 12.3 µM | HOP-92 28.9 µM | HT-29 15.8 µM | K562 16.7 µM | MDA-MB-435 15.6 µM | NCI-H226 27.1 µM | OVCAR-8 17.7 µM | RPMI-8226 4.2 µM | RXF 393 19.1 µM | SF-268 13.1 µM | SF-539 24.9 µM | SK-OV-3 29.8 µM | TK-10 22.2 µM

O=C(NCCNCCO)N/N=C/c1ccc([N+](=O)[O-])cc1
inactive: ACHN > 100 µM | CAKI-1 > 100 µM | CCRF-CEM > 100 µM | COLO 205 > 100 µM | HCT-116 > 100 µM | HT-29 > 100 µM | K562 > 100 µM | MDA-MB-435 > 100 µM | NCI-H226 > 100 µM | OVCAR-8 > 100 µM | PC-3 > 100 µM | SF-268 > 100 µM | SF-539 > 100 µM | SK-MEL-2 49.8 µM | SK-OV-3 > 100 µM | TK-10 90.8 µM

CC(C)(C)OC(=O)CN1CCNCCN(CC(=O)OC(C)(C)C)CC1
inactive: ACHN > 100 µM | CAKI-1 > 100 µM | CCRF-CEM > 100 µM | COLO 205 > 100 µM | EKVX > 100 µM | HCT-116 > 100 µM | HOP-92 > 100 µM | HT-29 44.3 µM | K562 54.5 µM | NCI-H226 > 100 µM | OVCAR-8 > 100 µM | PC-3 > 100 µM | RPMI-8226 > 100 µM | SF-539 > 100 µM | SK-MEL-2 > 100 µM | SK-OV-3 > 100 µM | TK-10 > 100 µM

COC1=N[C@H](C(C)C)C(OC)=N[C@H]1Cc1ccc(C[C@@H]2N=C(OC)[C@@H](C(C)C)N=C2OC)s1
inactive: ACHN 29.4 µM | CAKI-1 50.2 µM | CCRF-CEM 19.5 µM | COLO 205 22.1 µM | EKVX 24.8 µM | HCT-116 31 µM | HOP-92 > 100 µM | HT-29 26.2 µM | K562 32.4 µM | MDA-MB-435 33.1 µM | OVCAR-8 76.9 µM | PC-3 21.3 µM | SF-268 67.8 µM | SF-539 > 100 µM | SK-MEL-2 14.3 µM | SK-OV-3 > 100 µM | TK-10 > 100 µM

NC(=S)N/N=C(/CC(=O)c1ccccc1)C(=O)Nc1ccc(Cl)c(Cl)c1
inactive: ACHN 75.2 µM | CAKI-1 68.5 µM | CCRF-CEM 28.6 µM | COLO 205 > 100 µM | EKVX 33 µM | HCT-116 > 100 µM | HOP-92 40 µM | HT-29 > 100 µM | K562 > 100 µM | NCI-H226 > 100 µM | OVCAR-8 47.6 µM | RPMI-8226 73.3 µM | RXF 393 > 100 µM | SF-268 > 100 µM | SF-539 > 100 µM | SK-MEL-2 78.2 µM | SK-OV-3 > 100 µM | TK-10 > 100 µM

CC/C(C)=C1\OC(=O)C(C)C(O)C(Cc2cccnc2)NC(=O)C(NC(=O)c2ncccc2O)C(C)OC1=O (stereo not given)
inactive: ACHN 6.7 µM | CAKI-1 > 100 µM | COLO 205 > 100 µM | EKVX 31.3 µM | HCT-116 82.2 µM | HT-29 42.2 µM | K562 > 100 µM | MDA-MB-435 > 100 µM | OVCAR-8 63.8 µM | PC-3 50 µM | RPMI-8226 90.8 µM | SF-268 58.3 µM | SF-539 > 100 µM | SK-MEL-2 > 100 µM | SK-OV-3 71.9 µM | TK-10 > 100 µM

Cn1c(-c2ccccc2)c/c(=N\NS(C)(=O)=O)c2cc(S(=O)(=O)O)ccc21
inactive: ACHN > 100 µM | CAKI-1 > 100 µM | CCRF-CEM > 100 µM | COLO 205 > 100 µM | EKVX > 100 µM | HCT-116 > 100 µM | HOP-92 > 100 µM | HT-29 > 100 µM | K562 > 100 µM | NCI-H226 > 100 µM | OVCAR-8 > 100 µM | RPMI-8226 > 100 µM | RXF 393 > 100 µM | SF-268 > 100 µM | SF-539 > 100 µM | SK-MEL-2 > 100 µM | SK-OV-3 > 100 µM | TK-10 > 100 µM

CCN(C(=N)C#N)c1ccccc1
inactive: ACHN > 100 µM | CAKI-1 > 100 µM | CCRF-CEM > 54.5 µM | COLO 205 > 95.3 µM | EKVX > 100 µM | HCT-116 > 60.4 µM | HOP-92 > 100 µM | HT-29 > 89.7 µM | K562 > 75.5 µM | NCI-H226 > 100 µM | OVCAR-8 > 100 µM | RPMI-8226 > 100 µM | RXF 393 > 100 µM | SF-268 > 100 µM | SF-539 13.6 µM | SK-MEL-2 > 100 µM | SK-OV-3 > 100 µM | TK-10 > 100 µM

CC1C2=C(O)CC(C)(C)CC2=NC2=C1C(=O)CC(C)(C)C2 (stereo not given)
inactive: ACHN > 100 µM | CAKI-1 > 100 µM | CCRF-CEM > 100 µM | EKVX > 100 µM | HOP-92 > 100 µM | HT-29 > 100 µM | K562 91.8 µM | NCI-H226 > 100 µM | OVCAR-8 > 100 µM | PC-3 > 100 µM | RPMI-8226 > 100 µM | SF-268 > 100 µM | SF-539 > 100 µM | SK-OV-3 > 100 µM | TK-10 > 100 µM

CCCN(CCCC(NC(C)=O)C(=O)NCc1ccccc1)C(=O)NC (stereo not given)
inactive: ACHN > 100 µM | CAKI-1 > 100 µM | CCRF-CEM > 100 µM | COLO 205 > 100 µM | EKVX > 100 µM | HCT-116 > 100 µM | HOP-92 > 100 µM | HT-29 > 100 µM | K562 > 100 µM | NCI-H226 > 100 µM | OVCAR-8 > 100 µM | RPMI-8226 > 100 µM | RXF 393 > 100 µM | SF-268 > 100 µM | SF-539 > 100 µM | SK-MEL-2 > 100 µM | SK-OV-3 > 100 µM | TK-10 > 100 µM

CCCCC(C(=O)C(=O)NC1C2CC3CC(C2)CC1C3)C(=O)C(C)C (stereo not given)
inactive: ACHN > 100 µM | CAKI-1 > 100 µM | CCRF-CEM > 100 µM | COLO 205 > 100 µM | EKVX > 100 µM | HCT-116 > 100 µM | HOP-92 > 100 µM | HT-29 > 100 µM | K562 > 100 µM | NCI-H226 > 100 µM | OVCAR-8 > 100 µM | RPMI-8226 > 100 µM | RXF 393 > 100 µM | SF-268 > 100 µM | SF-539 > 100 µM | SK-MEL-2 > 100 µM | SK-OV-3 > 100 µM | TK-10 > 100 µM

N#CC(C(=O)c1ccccc1F)c1nc2cc(C(F)(F)F)ccc2s1 (stereo not given)
inactive: ACHN 27.5 µM | CAKI-1 32.3 µM | COLO 205 20.9 µM | EKVX 22.4 µM | HCT-116 19.2 µM | HOP-92 19.1 µM | HT-29 17.6 µM | MDA-MB-435 25.8 µM | NCI-H226 33.2 µM | OVCAR-8 31.6 µM | RPMI-8226 22 µM | RXF 393 24 µM | SF-268 30.3 µM | SF-539 33.4 µM | SK-OV-3 27 µM | TK-10 30.8 µM

— ChEMBL document CHEMBL1201862, “PubChem BioAssay data set” (2004)
